Results published in patent US8957064B2, “Fused pyrimidines” (Bayer Intellectual Property GmbH, priority 2009, dated 2015).

What was measured:
[1] = target: His-tagged human recombinant kinase full-length Akt1 (Homo sapiens (Human), UniProt P31749); assay: Akt1 kinase assay (Akt1 TR-FRET assay, Biological Assay 1.0); assay type: biochemical; conditions: 10 μM ATP, 1 μM biotinylated peptide substrate, 60 min at 22° C.
Summary of the method: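 Insect-cell-expressed full-length His-Akt1 (~0.05 ng/μl) preincubated 15 min with compound, then reacted 60 min at 22 °C with 10 μM ATP and 1 μM biotinylated peptide (final), pH 7.5. Phosphopeptide detected by HTRF (665/620 nm ratio). Data normalised to no-inhibitor and no-enzyme controls.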

[2] = target: His-tagged human recombinant kinase full-length Akt2 activated by PDK1 (Homo sapiens (Human), UniProt P31751); assay: Akt2 kinase assay (Akt2 TR-FRET assay, Biological Assay 2.0); assay type: biochemical; conditions: 10 μM ATP, 1 μM biotinylated peptide substrate, 60 min at 22° C.
Sequence of His-tagged human recombinant kinase full-length Akt2 activated by PDK1 (P31751 whole entry): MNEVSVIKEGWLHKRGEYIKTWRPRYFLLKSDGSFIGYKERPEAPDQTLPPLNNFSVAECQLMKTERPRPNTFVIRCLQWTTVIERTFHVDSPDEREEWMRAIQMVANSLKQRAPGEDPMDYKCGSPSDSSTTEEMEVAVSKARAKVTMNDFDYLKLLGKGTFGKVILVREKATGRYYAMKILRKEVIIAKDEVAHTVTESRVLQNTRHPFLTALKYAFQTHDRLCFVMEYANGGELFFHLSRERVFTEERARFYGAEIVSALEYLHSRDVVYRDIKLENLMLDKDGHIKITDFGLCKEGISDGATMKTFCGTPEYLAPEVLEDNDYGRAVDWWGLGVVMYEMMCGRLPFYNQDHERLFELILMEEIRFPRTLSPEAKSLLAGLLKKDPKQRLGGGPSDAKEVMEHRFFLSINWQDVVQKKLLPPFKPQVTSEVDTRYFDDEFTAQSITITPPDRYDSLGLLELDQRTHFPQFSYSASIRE
Summary of the method: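 Compound was pre-incubated with enzyme (~0.2 ng/µl final) for 15 min at 22 °C in Tris pH 7.5, 5 mM MgCl2, then reacted 60 min with 10 µM ATP and 1 µM biotinylated peptide. Phosphopeptide was detected by TR-FRET (665/622 nm ratio). Data were normalised to no-inhibitor (0%) and no-enzyme (100%) controls.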

Sequence of His-tagged human recombinant kinase full-length Akt1 (P31749 whole entry): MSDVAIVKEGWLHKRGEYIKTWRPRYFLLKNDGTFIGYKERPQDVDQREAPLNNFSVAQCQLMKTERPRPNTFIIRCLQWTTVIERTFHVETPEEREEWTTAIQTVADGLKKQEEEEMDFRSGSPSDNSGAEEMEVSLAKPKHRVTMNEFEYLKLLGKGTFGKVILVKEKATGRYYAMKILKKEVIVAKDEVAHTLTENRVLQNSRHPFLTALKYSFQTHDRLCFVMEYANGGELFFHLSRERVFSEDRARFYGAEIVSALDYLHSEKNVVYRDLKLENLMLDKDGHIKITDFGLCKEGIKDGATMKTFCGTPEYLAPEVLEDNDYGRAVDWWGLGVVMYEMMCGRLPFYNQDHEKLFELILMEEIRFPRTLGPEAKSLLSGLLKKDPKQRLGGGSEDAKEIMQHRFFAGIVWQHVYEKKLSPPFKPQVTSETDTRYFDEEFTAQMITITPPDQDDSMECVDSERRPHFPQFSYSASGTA

| Compound | IC50 [1] [nM] | IC50 [2] [nM] |
| --- | --- | --- |
| Cc1cccc(-c2nc(C3CCN(Cc4ccc(-c5nc6nc(C7CC7)nn6cc5-c5ccc(F)cc5)cc4)CC3)n[nH]2)n1 [Example 51.0, 2-cyclopropyl-6-(4-fluorophenyl)-5-(4-{4-[5-(6-methylpyridine-2-yl)-1H-[1,2,4]triazole-3-yl]-piperidine-1-ylmethyl}-phenyl)-[1,2,4]triazolo[1,5-a]pyrimidine] | 41 | 46 |
| Fc1ccc(-c2cn3nc(C4CC4)nc3nc2-c2ccc(CN3CCC(c4n[nH]c(-c5ccccn5)n4)CC3)cc2)cc1 [Example 51.1, 2-cyclopropyl-6-(4-fluorophenyl)-5-{4-[4-(5-pyridine-2-yl-1H-[1,2,4]triazole-3-yl)-piperidine-1-ylmethyl]-phenyl}-[1,2,4]triazolo[1,5-a]pyrimidine] | 32 | 69 |
| Fc1ccc(-c2cn3nc(C4CC4)nc3nc2-c2ccc(CN3CCC(c4n[nH]c(-c5cc(Cl)ccn5)n4)CC3)cc2)cc1 [Example 51.2, 5-(4-{4-[5-(4-chloropyridine-2-yl)-1H-[1,2,4]triazole-3-yl]-piperidine-1-ylmethyl}-phenyl)-2-cyclopropyl-6-(4-fluorophenyl)-[1,2,4]triazolo[1,5-a]pyrimidine] | 56 | 165 |
| Cc1cccc(-c2nc(C3CCN(Cc4ccc(-c5nc6nccn6cc5-c5ccc(F)cc5)cc4)CC3)n[nH]2)n1 [Example 52.0, 6-(4-fluorophenyl)-7-(4-{4-[5-(6-methylpyridine-2-yl)-1H-[1,2,4]triazole-3-yl]-piperidine-1-ylmethyl}-phenyl)-imidazo[1,2-a]pyrimidine formiate] | 9 | 17 |
| Cc1cccc(-c2nc(C3CCN(Cc4ccc(-c5nc6nccn6cc5-c5ccccc5F)cc4)CC3)n[nH]2)n1 [Example 54.0, 6-(2-fluorophenyl)-7-(4-{4-[5-(6-methylpyridine-2-yl)-1H-[1,2,4]triazole-3-yl]-piperidine-1-ylmethyl}-phenyl)-imidazo[1,2-a]pyrimidine] | 3 | 17 |
| Brc1cnc2nc(-c3ccc(CN4CC(c5n[nH]c(-c6ccccn6)n5)C4)cc3)c(-c3ccccc3)cn12 [Example 55.0, 3-bromo-6-phenyl-7-{4-{3-[5-(pyridine-2-yl)-1H-[1,2,4]triazole-3-yl)-azetidine-1-ylmethyl]-phenyl}-imidazo[1,2-a]pyrimidine] | 6 | 14 |
| Cc1cccc(-c2nc(C3CN(Cc4ccc(-c5nc6nc(C)c(Br)n6cc5-c5ccccc5)cc4)C3)n[nH]2)n1 [Example 57.0, 3-bromo-2-methyl-7-{4-{3-[5-(6-methylpyridine-2-yl)-1H-[1,2,4]triazole-3-yl)-azetidine-1-ylmethyl]-phenyl}-6-phenyl-imidazo[1,2-a]pyrimidine] | 6 | 3 |
| CNc1c(-c2ccccc2)c(-c2ccc(CN3CC(c4n[nH]c(-c5ccccn5)n4)C3)cc2)nc2nccn12 [Example 58.0, methyl-(6-phenyl-7-{4-{3-[5-(pyridine-2-yl)-1H-[1,2,4]triazole-3-yl)-azetidine-1-ylmethyl]-phenyl}-imidazo[1,2-a]pyrimidin-5-yl)-amine] | 30 | 476 |
| CNc1c(-c2ccccc2)c(-c2ccc(CN3CC(c4n[nH]c(-c5ccccn5)n4)C3)cc2)nc2ncc(Br)n12 [Example 59.0, (3-bromo-6-phenyl-7-{4-{3-[5-(pyridine-2-yl)-1H-[1,2,4]triazole-3-yl)-azetidine-1-ylmethyl]-phenyl}-imidazo[1,2-a]pyrimidin-5-yl)-methylamine] | 42 | 128 |
| CNc1c(-c2ccccc2)c(-c2ccc(CN3CC(c4n[nH]c(-c5cccc(C)n5)n4)C3)cc2)nc2nc(C)cn12 [Example 61.0, methyl-(2-methyl-7-{4-{3-[5-(6-methylpyridine-2-yl)-1H-[1,2,4]triazole-3-yl)-azetidine-1-ylmethyl]-phenyl}-6-phenyl-imidazo[1,2-a]pyrimidin-5-yl)-amine] | 11 | 19 |
| COc1nn2cc(-c3c(F)cccc3F)c(-c3ccc(CN4CC(c5n[nH]c(-c6ccccn6)n5)C4)cc3)nc2c1CO [Example 63.0, (6-(2,6-difluorophenyl)-2-methoxy-5-{4-[3-[5-pyridine-2-yl-1H-[1,2,4]triazole-3-yl)-azetidine-1-ylmethyl]-phenyl}-pyrazolo[1,5-a]pyrimidin-3-yl)-methanol] | 14 | 118 |
| COc1nn2cc(-c3c(F)cccc3F)c(-c3ccc(CN4CC(c5n[nH]c(-c6cccc(C)n6)n5)C4)cc3)nc2c1CO [Example 63.1] | 8 | 34 |
| COc1nn2cc(-c3c(F)cccc3F)c(-c3ccc(CN4CCC(c5n[nH]c(-c6cccc(C)n6)n5)CC4)cc3)nc2c1CO [Example 63.2] | 18 | 108 |

The remaining compounds from weak to strong by IC50 [1], led by results:

| IC50 [1] [nM] | IC50 [2] [nM] | Compound |
| --- | --- | --- |
| 355 | 1100 | Cc1nc2nc(-c3ccc(CN4CCC(c5n[nH]c(-c6cnccn6)n5)CC4)cc3)c(-c3ccc(F)cc3F)cn2n1 [Example 50.2, 6-(2,4-difluorophenyl)-2-methyl-5-[4-{4-(5-pyrazine-2-yl-1H-[1,2,4]triazole-3-yl)-piperidine-1-ylmethyl]-phenyl}-[1,2,4]triazolo[1,5-a]pyrimidine] |
| 186 | 1440 | Fc1ccc(-c2cn3ccnc3nc2-c2ccc(CN3CCC(c4n[nH]c(-c5cnccn5)n4)CC3)cc2)cc1 [Example 52.2, 6-(4-fluorophenyl)-7-{4-[4-(5-pyrazine-2-yl-1H-[1,2,4]triazole-3-yl]-piperidine-1-ylmethyl]-phenyl}-imidazo[1,2-a]pyrimidine] |
| 55 | 801 | OCc1cnn2cc(-c3c(F)cccc3F)c(-c3ccc(CN4CC(c5n[nH]c(-c6ccccn6)n5)C4)cc3)nc12 [Example 62.0, (6-(2,6-difluorophenyl)-5-{4-[3-[5-pyridine-2-yl-1H-[1,2,4]triazole-3-yl)-azetidine-1-ylmethyl]-phenyl}-pyrazolo[1,5-a]pyrimidin-3-yl)-methanol] |
| 33 | 36 | Cc1cccc(-c2nc(C3CN(Cc4ccc(-c5nc6nc(C)cn6c(NC(C)C)c5-c5ccccc5)cc4)C3)n[nH]2)n1 [Example 65.0, isopropyl-(2-methyl-6-phenyl-7-{4-{3-[5-(6-methylpyridine-2-yl)-1H-[1,2,4]triazole-3-yl)-azetidine-1-ylmethyl]-phenyl}-imidazo[1,2-a]pyrimidin-5-yl)-amine] |
| 30 | 39 | Cc1cn2c(NC(C)C)c(-c3ccccc3)c(-c3ccc(CN4CC(c5n[nH]c(-c6ccccn6)n5)C4)cc3)nc2n1 [Example 64.0, isopropyl-(2-methyl-6-phenyl-7-{4-{3-[5-(pyridine-2-yl)-1H-[1,2,4]triazole-3-yl)-azetidine-1-ylmethyl]-phenyl}-imidazo[1,2-a]pyrimidin-5-yl)-amine] |
| 25 | 33 | Fc1ccc(-c2cn3c(Cl)cnc3nc2-c2ccc(CN3CCC(c4n[nH]c(-c5ccccn5)n4)CC3)cc2)cc1 [Example 53.1, 3-chloro-6-(4-fluorophenyl)-7-{4-[4-(5-pyridine-2-yl-1H-[1,2,4]triazole-3-yl)-piperidine-1-ylmethyl]-phenyl}-imidazo[1,2-a]pyrimidine] |
| 25 | 53 | CC(C)Nc1c(-c2ccccc2)c(-c2ccc(CN3CC(c4n[nH]c(-c5ccccn5)n4)C3)cc2)nc2nccn12 [Example 66.0, isopropyl-(6-phenyl-7-{4-{3-[5-(pyridine-2-yl)-1H-[1,2,4]triazole-3-yl)-azetidine-1-ylmethyl]-phenyl}-imidazo[1,2-a]pyrimidin-5-yl)-amine] |
| 16 | 55 | CNc1c(-c2ccccc2)c(-c2ccc(CN3CC(c4n[nH]c(-c5ccccn5)n4)C3)cc2)nc2nc(C)cn12 [Example 60.0, methyl-(2-methyl-6-phenyl-7-{4-{3-[5-(pyridine-2-yl)-1H-[1,2,4]triazole-3-yl)-azetidine-1-ylmethyl]-phenyl}-imidazo[1,2-a]pyrimidin-5-yl)-amine] |
| 11 | 7 | Cc1cccc(-c2nc(C3CCN(Cc4ccc(-c5nc6ncc(Br)n6cc5-c5ccc(F)cc5)cc4)CC3)n[nH]2)n1 [Example 53.0, 3-bromo-6-(4-fluorophenyl)-7-(4-{4-[5-(6-methylpyridine-2-yl)-1H-[1,2,4]triazole-3-yl]-piperidine-1-ylmethyl}-phenyl)-imidazo[1,2-a]pyrimidine] |
| 10 | 47 | Cc1cn2cc(-c3ccccc3)c(-c3ccc(CN4CC(c5n[nH]c(-c6ccccn6)n5)C4)cc3)nc2n1 [Example 56.0, 2-methyl-6-phenyl-7-{4-{3-[5-(pyridine-2-yl)-1H-[1,2,4]triazole-3-yl)-azetidine-1-ylmethyl]-phenyl}-imidazo[1,2-a]pyrimidine] |
| 10 | 97 | COc1nn2cc(-c3c(F)cccc3F)c(-c3ccc(CN4CCC(c5n[nH]c(-c6ccccn6)n5)CC4)cc3)nc2c1CO [Example 63.3, (6-(2,6-difluorophenyl)-2-methoxy-5-{4-[4-(5-pyridine-2-yl-1H-[1,2,4]triazole-3-yl)-piperidine-1-ylmethyl]-phenyl}-pyrazolo[1,5-a]pyrimidin-3-yl)-methanol] |
| 8 | 32 | Fc1ccc(-c2cn3ccnc3nc2-c2ccc(CN3CCC(c4n[nH]c(-c5ccccn5)n4)CC3)cc2)cc1 [Example 52.1, 6-(4-fluorophenyl)-7-{4-[4-(5-pyridine-2-yl)-1H-[1,2,4]triazole-3-yl)-piperidine-1-ylmethyl)-phenyl}-imidazo[1,2-a]pyrimidine formiate] |
